Measured values taken from patent US5525629A, “Inhibition of cytokine production” (British Bio-Technology Limited, priority 1992, dated 1996).

Assays:
[1] = molecular target: stromelysin (Homo sapiens, UniProt P08254); test: inhibition of stromelysin (Cawston et al, acetylated 14C casein); assay type: biochemical; details: 37°, 16 hours, pH 7.5
Text: The casein was acetylated ^14 C casein prepared by the method of Cawston et al (ibid).

[2] = molecular target: T1, collagenase (Homo sapiens, UniProt P03956); test: inhibition of collagenase (Cawston and Barrett, acetylated 14C collagen); assay type: biochemical; details: 37°, 16 hours, pH 7.5
T1 sequence (P03956 100-469): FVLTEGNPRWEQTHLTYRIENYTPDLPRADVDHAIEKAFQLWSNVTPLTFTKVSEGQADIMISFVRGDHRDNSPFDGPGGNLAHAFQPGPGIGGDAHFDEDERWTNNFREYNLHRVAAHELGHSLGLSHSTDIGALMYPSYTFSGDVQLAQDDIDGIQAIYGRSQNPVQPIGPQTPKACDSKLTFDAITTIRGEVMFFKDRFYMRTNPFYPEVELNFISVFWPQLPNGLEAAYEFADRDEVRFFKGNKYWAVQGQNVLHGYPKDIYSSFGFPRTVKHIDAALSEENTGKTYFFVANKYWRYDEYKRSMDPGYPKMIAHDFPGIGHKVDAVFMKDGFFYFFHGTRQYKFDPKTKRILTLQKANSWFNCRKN
Text: The collagen was acetylated ^14 C collagen prepared by the method of Cawston and Murphy, (Methods in Enzymology, 80, 711, 1981), hereby incorporated by reference. The samples were centrifuged to sediment undigested collagen, and an aliquot of the radioactive supernatant removed for assay on a scintillation counter as a measure of hydrolysis.

[3] = system: TNF α release from a human monocytic cell line, U937; test: inhibition of PMA-stimulated TNF α release from U937 cells (TNF α ELISA); assay type: cell-based; details: U-937, PMA 50 nM, 18 hours at 37° C., read-out: concentration of test compound which inhibits the release of TNF α by 50% relative to the control culture (IC50)
Method: The ability of example compounds of the invention to inhibit the release of TNF was investigated. The assay is based on the ability of phorbol myristate acetate (PMA) to stimulate the release of TNF α from a human monocytic cell line, U937.
U937 cells cultured in RPMI 1640 medium +5% foetal calf serum are centifuged at 1000×g for 5 minutes and then resuspended in medium at 2×10^6 /mi. 1 ml of cell suspension is aliquoted into individual wells of 24-well plates. Test compounds are dissolved in dimethyl sulphoxide (DMSO) at a stock concentration of 100 mM, then diluted to 50×the final required concentration with RPMI 1640 medium. 20 μl of the diluted compounds are added to U937 cells in duplicate wells. TNF α release is stimulated by addition of PMA to the cells at a final concentration of 50 nM. Appropriate control cultures are set up in duplicate. The plates are incubated for 18 hours at 37° C., 5% CO2, then centrifuged at 1000×g for 5 minutes. A specific ELISA for TNF α obtained from British Bio-technology Products Limited, Abingdon, England is used to measure TNF α levels in the culture supernatants
The average concentration of test compound which inhibits the release of TNF α by 50% relative to the control culture was assessed.

[4] = system: serum TNF; test: inhibition of endotoxin (LPS) induced TNF production in vivo (serum TNF by L929 cytotoxicity assay); set-up: species or system Male New Zealand rabbits
Method: The compound of Example 3 was assessed for its ability to inhibit release of endotoxin induced TNF production in vivo.
Male New Zealand rabbits, 2.5-3.0 kg, were anaesthetised with sodium pentobarbitone, 30 mg.kg^-1 via a marginal ear vein which was maintained by infusion at 18 mg.kg^-1.hr^-1 via a jugular vein. Following tracheotomy, the animals were ventilated, to maintain arterial blood […], and oxygen was added to the inspired air to maintain arterial blood PO2 above 100 mmHg. Both femoral veins were cannulated for the administration of endotoxin (LPS) and the infusion of test compound, 2.5 mg.kg^-1.hr^-1 at a rate of 6 ml.hr^-1, 15 minutes before the administration of LPS, 40 μg.kg^-1 i.v. bolus. Blood samples were collected from a femoral artery just before and at 30 minute intervals after the administration of LPS for a period of 4 hours.
The biological activity of TNF in serum test samples was determined using a cytotoxicity assay as described in Mathews, N. and Neale, M. L. in Lymphokines and Interferons, a Practical Approach, Eds. M. J. Clements, A. G. Morris, and A. J. H. Gearing, IRL Press, Oxford, UK.
100 μl volumes of L929 cell suspension at 10^5 cells/ml were dispensed into 96-well microtitre plates. The plates were incubated overnight to allow formation of an even monolayer. A series of dilutions of the test rabbit serum was made in a culture medium containing 2 μg/ml of actinomycin D to give a final concentration of 1 μg/ml when added to the cells. The L929 cells were incubated for 24 hours in the presence of test samples, and serially diluted human TNF α was used as the assay standard. After the incubation period, dead cells were removed by washing briefly with phosphate buffered saline, and remaining cells were fixed with 4% formaldehyde for 10 minutes. After washing the plates with water to remove the fixative, the cells were stained by the addition of 50 μl of 1% crystal violet to each well for 5 minutes. The plates were washed extensively with water and dried. Cells were solubilised by the addition of 100 μl/well of 30% acetic acid and the OD at 550 nm was determined. The TNF level in units/ml in the test samples was determined from the human TNF α standard curve. where 1 unit is the equivalent of 1 pg/ml human TNF α.

[5] = system: TNF production by leucocytes; details: literature (Sampajo et al, 1991); cited from earlier work
[6] = system: TNF gene transcription; details: literature; compared with corticosteroids, cyclosporin-A, FK506; cited from earlier work

stromelysin, sequence (P08254 100-477): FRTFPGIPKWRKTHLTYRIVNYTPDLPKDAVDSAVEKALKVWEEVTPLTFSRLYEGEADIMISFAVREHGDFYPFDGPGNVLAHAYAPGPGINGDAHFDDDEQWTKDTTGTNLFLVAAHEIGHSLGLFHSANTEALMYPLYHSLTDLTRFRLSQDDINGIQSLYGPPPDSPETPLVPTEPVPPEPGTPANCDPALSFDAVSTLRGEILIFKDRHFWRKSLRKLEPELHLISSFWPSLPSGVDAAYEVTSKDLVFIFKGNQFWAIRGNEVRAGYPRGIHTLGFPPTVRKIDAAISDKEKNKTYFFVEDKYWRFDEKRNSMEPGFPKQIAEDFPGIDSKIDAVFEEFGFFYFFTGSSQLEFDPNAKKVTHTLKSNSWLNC

Structure (SMILES)	IC50 [1] [nM]	IC50 [2] [nM]	IC50 [3] [nM]	also measured
CNC(=O)[C@H](CCC(=O)OC)NC(=O)[C@H](CC(C)C)[C@H](CSc1ccc(O)cc1)C(=O)NO [Example 3, 2S-(4-Hydroxyphenylsulfanylmethyl)-3R-(3-methoxycarbonyl-1S-methylcarbamoyl-propylcarbamoyl)-5-methyl-hexanohydroxamic acid]	50	9	< 50000	Average % change in serum TNF level, LPS + test compound ([4]; 0 hrs from LPS bolus IV injection, infusion 2.5 mg.kg^-1.hr^-1 started 15 minutes before LPS 40 μg.kg^-1 i.v., n = 4): 0%; Average % change in serum TNF level, LPS + test compound ([4]; 1 hr from LPS bolus, infusion 2.5 mg.kg^-1.hr^-1, LPS alone (n = 5) +65): -58%; Average % change in serum TNF level, LPS + test compound ([4]; 2 hrs from LPS bolus, infusion 2.5 mg.kg^-1.hr^-1, LPS alone (n = 5) +55): -65%; Average % change in serum TNF level, LPS + test compound ([4]; 3 hrs from LPS bolus, infusion 2.5 mg.kg^-1.hr^-1, LPS alone (n = 5) -30): -99%; Average % change in serum TNF level, LPS + test compound ([4]; 4 hrs from LPS bolus, infusion 2.5 mg.kg^-1.hr^-1, LPS alone (n = 5) -100): -100%
CNC(=O)[C@H](CCC(=O)OC(C)(C)C)NC(=O)[C@H](CC(C)C)[C@H](CSc1ccc(O)cc1)C(=O)NO [Example 12, 2S-(4-Hydroxyphenylsulfanylmethyl)-3R-(3-tertbutoxycarbonyl-1S-methylcarbamoyl-propylcarbamoyl)-5-methyl-hexanohydroxamic acid]	40	20	< 50000	
O=C1CCC(N2C(=O)c3ccccc3C2=O)C(=O)N1 (centres unmarked) [Thalidomide]				inhibition of TNF production by leucocytes [5]: inhibit TNF production by leucocytes
CC(=O)CCCCn1c(=O)c2c(ncn2C)n(C)c1=O [pentoxyfilline]				specificity of inhibition of TNF gene transcription [6]: more specific inhibitors of TNF gene transcription

Continued, in another order:

IC50 [1] [nM]	IC50 [2] [nM]	IC50 [3] [nM]	Structure (SMILES)	also measured
250	20		CNC(=O)[C@H](CCC(=O)OC)NC(=O)[C@H](CC(C)C)[C@H](CSc1ccccc1)C(=O)NO [Example 1, 3R-(3-Methoxycarbonyl-1S-methylcarbamoyl-propylcarbamoyl)-5-methyl-2-S-phenylsulfanylmethyl hexanohydroxamic acid]	
	15	< 50000	CNC(=O)[C@H](CCC(=O)OC)NC(=O)[C@H](CC(C)C)[C@H](CSc1cccs1)C(=O)NO [Example 2, 3R-(3-Methoxycarbonyl-1S-methylcarbamoyl-propylcarbamoyl)-5-methyl-2S-(thien-2-ylsulfanylmethyl)-hexanohydroxamic acid]	
